# Laboratory results reported in patent publication US20130012473A1, “COMBINED USE OF PHOSPHOLIPID AND SULFATE GROUPS-CARRYING POLYSACCHARIDES FOR INHIBITING METASTATIC SPREAD” (KTB TUMORFORSCHUNGSGESELLSCHAFT MBH, priority 2010, published 2013).
# Columns and labels:
# [1] = test system: P-selectin mediated interaction of B16.F10 cells with activated platelets; test: Binding of calcein-labeled TRAP-14 activated platelets to B16.F10 cells; type: cell-based, mouse; conditions: cells treated with 450 μM LysoPC for 48 h
# Procedure: Platelet isolation: Platelets from blood of healthy volunteers were separated, routinely tested for viability, and activated by TRAP-14 (Bachem GmbH, Weil am Rhein, Germany) as recently described (Fritzsche, J. et al., Thromb. Haemost. 100:1166-1175 (2008)). Isolated platelets were stored at 37° C. in a water bath.
# B) Binding of calcein-labeled TRAP-14 activated platelets to B16.F10 cells treated with 450 μM LysoPC for 48 h was analyzed by fluorescence microscopy. […] Data represent means±SD from three independent experiments. P, resting platelets; aP, activated platelets; LysoPC, LysoPC treated B16.F10 cells; Ab, Ig-matched control antibody.
# VLA-4 = test: Flow cytometry, VLA-4 surface expression (anti-mouse CD49d mAb); type: cell-based; conditions: repeatedly incubated with 450 μM LysoPC for 13 days
# Procedure: (§1) FIG. 3: Impact of exogenous LysoPC on the surface expression of VLA-4 or VCAM-1- and P-selectin-ligands. (A) Surface expression of VLA-4 on B16.F10 cells treated with 450 μM LysoPC for 13 days was controlled by flow cytometric analysis. […] FACS histograms (A-C) show one representative of three independent experiments. In all experiments cells only incubated with the respective FITC-conjugated detection antibody served as control.
# VCAM-1 Fc chimera = test: Flow cytometry, binding of soluble VCAM-1 Fc chimera; type: cell-based, mouse; conditions: repeatedly incubated with 450 μM LysoPC for 13 days
# Procedure: as §1
# P-selectin ligands = test: Flow cytometry, binding of soluble P-selectin Fc chimera; type: cell-based, mouse; conditions: 450 μM LysoPC treated cells vs control cells
# Procedure: as §1
# B16.F10 cells [2] = test: Fatty acid composition of cell lysates by GC analysis; type: cell-based, mouse
# Procedure: Determination of fatty acid composition in cells and culture medium: Lipid extraction was performed according to the modified method of Bligh and Dyer (Bligh, E. G. and Dyer, W. J., Can. J. Biochem. Physiol. 37:911-917 (1959). For derivatization, the dried lipid extracts were subjected to methanol and TMSH and heated up to 100° C. for 10 min (Techne Dri Block DB-3D Techne, Stone, UK). Gas chromatography analysis was performed by an HP 5890 Series II Plus equipped with autosampler GC/SFC injector and flame ionisation detector (FID) with helium as carrier gas at 1 ml/min. Oven temperature program started with 150° C. for 3 min, up to 220° C. with a rate of 5° C./min, 220° C. for 3.5 min, split injection (split flow 100 ml/min, split ratio 1:100), 5 μl of injection volume, injector temperature 260° C. and FID at 280° C. on an Agilent DB-23 column (30 m, 0.25 mm ID, 0.25 μm). Integration of peak areas was performed with the HP software HP GC ChemStation (Rev.A.06.03[509]) running the GC system. Identification of peaks was accomplished by comparison to a fatty acid standard mixture.
# Example 3: Cell membrane alterations induced by LysoPC treatment. In order to analyze membrane alterations caused by exogenous LysoPC the kinetics of changed fatty acid profiles of B16.F10 cells were evaluated by GC analysis. […] Between 48 h and 72 h, a plateau was apparently reached (C17:0: ˜55%). […]
# B16.F10 cells [3] = test: LysoPC-mediated toxicity, cell viability by BrdU assay; type: cell-based, mouse
# Procedure: BrdU proliferation assay: Proliferation and viability were determined by BrdU and WST-1 assay (Roche Diagnostics GmbH, Penzberg, Germany) according to the manufacturer's instructions.
# LysoPC was toxic towards B16.F10 cells (p<0.001) at physiological concentrations (≧150 μM) in culture medium (DMEM plus 10% FCS). Thus, different amounts of BSA were added to reduce the concentration of cellular assessable LysoPC (monomolecular and micellar dissolved) and to therefore reduce LysoPC toxicity. Viability of the tumor cells was determined by BrdU assay and adding 10 mg BSA/ml, reduced cell viability was evident above 300 μM LysoPC. Using 20 mg/ml, reduced cell viability was evident above 450 μM LysoPC. Thus, to avoid toxicity of exogenous LysoPC (150 μM to 900 μM) towards the tumor cells during the LysoPC-removal-assay (FIG. 1), addition of 20 mg-40 mg BSA/ml DMEM was essential.
# [4] = test system: B16.F10 ELN melanoma cells; test: In vivo bioluminescence imaging of metastatic spread; parameters: species or system mouse; conditions: measured once weekly
# Procedure: Metastatic spread was also measured once weekly by in vivo bioluminescence as described previously (Jantscheff, P. et al., Prostate 69:1151-1163 (2009)). Overlays of in vivo images and mouse photographs allowed to localize the metastatic lesions in lung and at the injection sites (D: black arrows) even in late images (D: day 14).
structure (smiles),measurement,setting,value
CCCCCCCCCCCCCCCCC(=O)OC[C@@H](O)COP(=O)([O-])OCC[N+](C)(C)C [LysoPC],interaction of B16.F10 cells with activated platelets,[1],significantly (p<0.001) reduced P-selectin mediated interaction with activated platelets to the level of resting cells
same,VLA-4 receptor expression,VLA-4,did not influence VLA-4 receptor expression
same,functionality of VLA-4 to interact with soluble VCAM-1-Fc chimera,VCAM-1 Fc chimera,only slightly impaired
same,expression of P-selectin ligands (P-selectin-Fc chimera binding),P-selectin ligands,remained unchanged
same,reduction of fatty acid ratio after replacing LysoPC medium,B16.F10 cells [2]; 48 h after incubation in LysoPC-free DMEM medium,10-15%
same,membrane composition on repeated feeding,B16.F10 cells [2]; repeated feeding (up to six times) every 48 h,did not further change the membrane composition
same,LysoPC concentration with reduced cell viability,B16.F10 cells [3]; 10 mg BSA/ml added,above 300 μM
same,LysoPC concentration with reduced cell viability,B16.F10 cells [3]; 20 mg/ml BSA added,above 450 μM
same,toxic LysoPC concentration,"B16.F10 cells [3]; culture medium DMEM plus 10% FCS, no added BSA, p<0.001",≥ 150 µM
same,"quantification of metastatic spread by in vivo bioluminescence, differences LysoPC-treated vs untreated",[4],could not confirm
